Results: PubChem BioAssay AID248 (DTP/NCI, 2004)
Where “and” joins values, the source holds several entries; their conditions need not be identical. Equal values may be shown once. Inconclusive results and toxic doses are left out. Rule as the data show it: active = T/C of 150% or more; inactive = T/C below 125%.

Test system: L1210 leukemia ip in BDF1 mice, survival T/C
Experiment: NCI In Vivo Anticancer Drug Screen. Data for tumor model L1210 Leukemia (intraperitoneal) in B6D2F1 (BDF1) mice
Settings: endpoint: mean survival time, higher = longer survival
Outline: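 In this screen, tumor-bearing mice given compound are compared to those given vehicle, and their survival values are reported as a treated-to-control quotient.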

[1] = dose: 100.0 mg/kg/injection, schedule: Q01DX001 (ip), vehicle: Klucel (hydroxypropylcellulose) (HPC)
[2] = dose: 100.0 mg/kg/injection, schedule: Q01DX009 (ip), vehicle: Klucel (hydroxypropylcellulose) (HPC)
[3] = dose: 200.0 mg/kg/injection, schedule: Q01DX001 (ip), vehicle: Klucel (hydroxypropylcellulose) (HPC)
[4] = dose: 200.0 mg/kg/injection, schedule: Q01DX009 (ip), vehicle: Klucel (hydroxypropylcellulose) (HPC)
[5] = dose: 400.0 mg/kg/injection, schedule: Q01DX009 (ip), vehicle: Klucel (hydroxypropylcellulose) (HPC)
[6] = dose: 100.0 mg/kg/injection, schedule: Q04DX003 (ip), vehicle: Klucel (hydroxypropylcellulose) (HPC)
[7] = dose: 200.0 mg/kg/injection, schedule: Q04DX003 (ip), vehicle: Klucel (hydroxypropylcellulose) (HPC)
[8] = dose: 400.0 mg/kg/injection, schedule: Q04DX003 (ip), vehicle: Klucel (hydroxypropylcellulose) (HPC)

Measured: T/C

CCOC(=O)C1(C(C)C)OC2(O)C3CCCN3C(=O)C(C(C)C)N2C1=O (stereo not drawn)
inactive: dose: 3.12 mg/kg/injection, schedule: Q03HX024 (ip), vehicle: Klucel (hydroxypropylcellulose) (HPC) 98 % of control | dose: 6.25 mg/kg/injection, schedule: Q03HX024 (ip), vehicle: Klucel (hydroxypropylcellulose) (HPC) 97 % of control | dose: 8.25 mg/kg/injection, schedule: Q01DX009 (ip), vehicle: Klucel (hydroxypropylcellulose) (HPC) 97 % of control | dose: 12.5 mg/kg/injection, schedule: Q01DX009 (ip), vehicle: Klucel (hydroxypropylcellulose) (HPC) 98 % of control | dose: 12.5 mg/kg/injection, schedule: Q03HX024 (ip), vehicle: Klucel (hydroxypropylcellulose) (HPC) 98 % of control | dose: 16.5 mg/kg/injection, schedule: Q01DX009 (ip), vehicle: Klucel (hydroxypropylcellulose) (HPC) 99 % of control | dose: 25.0 mg/kg/injection, schedule: Q01DX001 (ip), vehicle: Klucel (hydroxypropylcellulose) (HPC) 95 % of control | dose: 25.0 mg/kg/injection, schedule: Q01DX009 (ip), vehicle: Klucel (hydroxypropylcellulose) (HPC) 109 % of control | dose: 25.0 mg/kg/injection, schedule: Q03HX024 (ip), vehicle: Klucel (hydroxypropylcellulose) (HPC) 100 % of control | dose: 25.0 mg/kg/injection, schedule: Q04DX003 (ip), vehicle: alcohol 97 % of control | dose: 33.0 mg/kg/injection, schedule: Q01DX009 (ip), vehicle: Klucel (hydroxypropylcellulose) (HPC) 100 % of control | dose: 50.0 mg/kg/injection, schedule: Q01DX001 (ip), vehicle: Klucel (hydroxypropylcellulose) (HPC) 101 % of control | dose: 50.0 mg/kg/injection, schedule: Q01DX009 (ip), vehicle: Klucel (hydroxypropylcellulose) (HPC) 105 % of control | dose: 50.0 mg/kg/injection, schedule: Q03HX024 (ip), vehicle: Klucel (hydroxypropylcellulose) (HPC) 93 % of control | dose: 50.0 mg/kg/injection, schedule: Q04DX003 (ip), vehicle: alcohol 106 % of control | dose: 66.0 mg/kg/injection, schedule: Q01DX009 (ip), vehicle: Klucel (hydroxypropylcellulose) (HPC) 98 % of control | [1] 95 % of control | [2] 100 % of control | dose: 100.0 mg/kg/injection, schedule: Q04DX003 (ip), vehicle: alcohol 96 % of control | [3] 104 % of control | [4] 98 % of control | dose: 200.0 mg/kg/injection, schedule: Q04DX003 (ip), vehicle: alcohol 98 % of control

CCCCC(CC)COc1ccc(N=C(N)N=C(N)N)cc1 (stereo not drawn)
inactive: dose: 100.0 mg/kg/injection, schedule: Q04DX002 (ip), vehicle: saline with Tween-80 105 % of control

c1ccc2c3c(ccc2c1)OCN(C12CC4CC(CC(C4)C1)C2)C3
inactive: dose: 100.0 mg/kg/injection, schedule: Q04DX003 (ip), vehicle: saline 98 % of control | dose: 200.0 mg/kg/injection, schedule: Q04DX003 (ip), vehicle: saline 105 % of control | dose: 400.0 mg/kg/injection, schedule: Q04DX003 (ip), vehicle: saline 89 % of control

CC(=O)Nc1ccc(C(=O)NNC2=C(NNC(=O)c3ccc(NC(C)=O)cc3)C(=O)c3ccccc3C2=O)cc1
inactive: dose: 75.0 mg/kg/injection, schedule: Q04DX003 (ip), vehicle: saline 100 % of control | dose: 150.0 mg/kg/injection, schedule: Q04DX003 (ip), vehicle: saline 91 % of control | dose: 300.0 mg/kg/injection, schedule: Q04DX003 (ip), vehicle: saline 91 % of control

O=C/C(=C\C=C\c1ccc([N+](=O)[O-])cc1)c1ccccc1
inactive: dose: 75.0 mg/kg/injection, schedule: Q01DX001 (ip), vehicle: Klucel (hydroxypropylcellulose) (HPC) 86 % of control | dose: 150.0 mg/kg/injection, schedule: Q01DX001 (ip), vehicle: Klucel (hydroxypropylcellulose) (HPC) 88 % of control | dose: 300.0 mg/kg/injection, schedule: Q01DX001 (ip), vehicle: Klucel (hydroxypropylcellulose) (HPC) 89 % of control

NC(=O)CCC(NC(=O)OCc1ccccc1)C(=O)NCC(=O)O (stereo not drawn)
inactive: dose: 25.0 mg/kg/injection, schedule: Q04DX002 (ip), vehicle: Klucel (hydroxypropylcellulose) (HPC) 95 % of control | dose: 50.0 mg/kg/injection, schedule: Q04DX002 (ip), vehicle: Klucel (hydroxypropylcellulose) (HPC) 92 % of control | dose: 100.0 mg/kg/injection, schedule: Q04DX002 (ip), vehicle: Klucel (hydroxypropylcellulose) (HPC) 100 % of control

COc1ccc(OC)c(NC(=O)SCCSC(=O)Nc2cc(OC)ccc2OC)c1
inactive: [2] 92 % of control | [4] 91 % of control | [5] 92 % of control

Cc1cc(C)c2[nH]c(=O)c(C)c(C)c2c1
inactive: dose: 100.0 mg/kg/injection, schedule: Q01DX001 (ip), vehicle: other 104 % of control | dose: 200.0 mg/kg/injection, schedule: Q01DX001 (ip), vehicle: other 95 % of control | dose: 400.0 mg/kg/injection, schedule: Q01DX001 (ip), vehicle: other 95 % of control

Nc1nnnc2nc[nH]c12
inactive: dose: 12.5 mg/kg/injection, schedule: Q01DX Z (ip), vehicle: carboxymethylcellulose (CMC) 100 % of control | dose: 25.0 mg/kg/injection, schedule: Q01DX Z (ip), vehicle: carboxymethylcellulose (CMC) 93 % of control

CC12CCC3CC1OC(=O)C32 (stereo not drawn)
inactive: dose: 12.5 mg/kg/injection, schedule: Q01DX001 (ip), vehicle: saline 98 % of control | dose: 25.0 mg/kg/injection, schedule: Q01DX001 (ip), vehicle: saline 94 % of control | dose: 50.0 mg/kg/injection, schedule: Q01DX001 (ip), vehicle: saline 105 % of control

CCCCCC1OC1C/C=C\CCCCCCCC(=O)OCC(O)COC(=O)CCCCCCC/C=C\CC1OC1CCCCC (stereo not drawn)
inactive: dose: 100.0 mg/kg/injection, schedule: Q01DX001 (ip), vehicle: saline 97 % of control | dose: 200.0 mg/kg/injection, schedule: Q01DX001 (ip), vehicle: saline 97 % of control | dose: 400.0 mg/kg/injection, schedule: Q01DX001 (ip), vehicle: saline 95 % of control

c1ccc(CN(CCNc2ccccc2)c2ccccc2)cc1
inactive: dose: 50.0 mg/kg/injection, schedule: Q01DX009 (ip), vehicle: water 97 % of control | dose: 100.0 mg/kg/injection, schedule: Q01DX009 (ip), vehicle: water 94 % of control

Nn1c(=O)[nH][nH]c1=O
inactive: [2] 113 % of control | [6] 97 % of control and 109 % of control | [4] 97 % of control | [7] 105 % of control and 91 % of control | [8] 109 % of control

CCOC(=O)C(C(=O)OCC)C1c2ccccc2NC(=O)c2ccccc21 (stereo not drawn)
inactive: [2] 100 % of control | [6] 90 % of control | [4] 100 % of control | [7] 90 % of control | [5] 91 % of control | [8] 88 % of control

CC(C(=O)c1ccccc1)C(c1ccccc1)N1CCOCC1 (stereo not drawn)
inactive: dose: 100.0 mg/kg/injection, schedule: Q04DX003 (ip), vehicle: saline with Tween-80 106 % of control | dose: 200.0 mg/kg/injection, schedule: Q04DX003 (ip), vehicle: saline with Tween-80 101 % of control | dose: 400.0 mg/kg/injection, schedule: Q04DX003 (ip), vehicle: saline with Tween-80 100 % of control

CCOP(=O)(OC(C)CC)OC(C)CC (stereo not drawn)
inactive: dose: 100.0 mg/kg/injection, schedule: Q04DX003 (ip), vehicle: carboxymethylcellulose (CMC) 93 % of control | dose: 200.0 mg/kg/injection, schedule: Q04DX003 (ip), vehicle: carboxymethylcellulose (CMC) 87 % of control

C/C(=N\N)C(=O)S(=O)(=O)c1c(C)cc(C)cc1C
inactive: [1] 97 % of control | [3] 97 % of control | dose: 400.0 mg/kg/injection, schedule: Q01DX001 (ip), vehicle: Klucel (hydroxypropylcellulose) (HPC) 101 % of control

CC1NC(=O)OC1(C)C(C)(C)C (stereo not drawn)
inactive: dose: 5.0 mg/kg/injection, schedule: Q04DX003 (ip), vehicle: saline with Tween-80 97 % of control | dose: 10.0 mg/kg/injection, schedule: Q04DX003 (ip), vehicle: saline with Tween-80 100 % of control | dose: 20.0 mg/kg/injection, schedule: Q04DX003 (ip), vehicle: saline with Tween-80 96 % of control
